Earlier results as cited in publication PMC3945118 (Journal of molecular neuroscience : MN, 2013).

System: rotarod performance
Conditions: test not specified; no reference given

CCCC(CCC)C(=O)O [valproic acid]
Therapeutic Index (TI) of known anticonvulsant: ~1
